{"source": "ChEMBL document CHEMBL3352464", "about": "“X-ray crystallographic analysis of IMP-1 metallo-β-lactamase complexed with a 3-aminophthalic acid derivative, structure-based drug design, and synthesis of 3,6-disubstituted phthalic acid derivative inhibitors” (Bioorg Med Chem Lett, 2014)"}
{"system": "Pseudomonas aeruginosa", "experiment": "Inhibition of IMP-1 in mexAB-deficient Pseudomonas aeruginosa KG5002/pMS363 assessed as MIC of BIPM at 50 ug/ml by microbroth dilution method", "units": {"MIC": "µg/mL"}}
{"smiles": "CN(C)c1ccc(N2CCC(O)CC2)c(C(=O)O)c1C(=O)O", "MIC": "< 0.25"}
{"smiles": "O=C(O)c1cccc(N2CCC(O)CC2)c1C(=O)O", "MIC": "< 0.25"}
{"smiles": "Cc1ccc(N2CCC(O)CC2)c(C(=O)O)c1C(=O)O", "MIC": "< 0.25"}
{"smiles": "O=C(O)c1c(N2CCC(O)CC2)ccc(N2CCC(O)CC2)c1C(=O)O", "MIC": "< 0.25"}
{"smiles": "O=C(O)c1c(F)ccc(N2CCC(O)CC2)c1C(=O)O", "MIC": 1}
{"system": "Pseudomonas aeruginosa", "experiment": "Inhibition of IMP-1 in Pseudomonas aeruginosa PAO1/pMS363 assessed as MIC of BIPM at 50 ug/ml by microbroth dilution method", "units": {"MIC": "µg/mL"}}
{"smiles": "CN(C)c1ccc(N2CCC(O)CC2)c(C(=O)O)c1C(=O)O", "MIC": 1}
{"smiles": "O=C(O)c1cccc(N2CCC(O)CC2)c1C(=O)O", "MIC": 1}
{"smiles": "Cc1ccc(N2CCC(O)CC2)c(C(=O)O)c1C(=O)O", "MIC": 1}
{"smiles": "O=C(O)c1c(N2CCC(O)CC2)ccc(N2CCC(O)CC2)c1C(=O)O", "MIC": 0.5}
{"smiles": "O=C(O)c1c(F)ccc(N2CCC(O)CC2)c1C(=O)O", "MIC": 2}
{"system": "not listed separately", "experiment": "Inhibition of carbapenems-resistant Pseudomonas aeruginosa PAO1/pMS363 IMP-1 using nitrocefin as substrate after 20 mins by spectrophotometric analysis", "units": {"IC50": "µM"}}
{"smiles": "CN(C)c1ccc(N2CCC(O)CC2)c(C(=O)O)c1C(=O)O", "IC50": 4.1}
{"smiles": "O=C(O)c1cccc(N2CCC(O)CC2)c1C(=O)O", "IC50": 2.7}
{"smiles": "Cc1ccc(N2CCC(O)CC2)c(C(=O)O)c1C(=O)O", "IC50": 0.7}
{"smiles": "O=C(O)c1c(N2CCC(O)CC2)ccc(N2CCC(O)CC2)c1C(=O)O", "IC50": 0.27}
{"smiles": "O=C(O)c1c(F)ccc(N2CCC(O)CC2)c1C(=O)O", "IC50": 17.5}
